Results from US20240287054A1, “COMPOUNDS THAT BIND NON-CANONICAL G-QUADRUPLEX STRUCTURES AND METHODS OF MAKING AND USING THE SAME” (The U.S.A., as Represented by the Secretary, Department of …, priority 2021, published 2024).
Read-outs that look alike come from different tables or passages of the source.

Assays:
Type in all cases: binding, human
MYCN hairpin-G4 DNA = assay: FIA using compound fluorescence (Ex 340/Em 500 nm), titration with unlabeled MYCN G4 DNA; conditions: for Kd: 100 nM compound titrated with folded unlabeled MYCN G4
Experimental: In this study, FIA was used for validating the bindings between certain bivalent and MYCN G4 oligos. To measure the binding affinity, a solution of each compound was prepared in triplicate in a 96 well-plate (Costar, black side clear bottom), resulting in a final concentration of 100 nM (5% final DMSO in the working solution). Unlabeled MYCN G4 DNA was folded based on the above-mentioned annealing method, then added into the well plate resulting in different concentrations by a seral dilution. The plate was incubated at room temperature for 30 min, followed by centrifuging at 500 rpm for 2 minutes. The fluorescence intensity was then quantitatively recorded by a Synergy Mx microplate reader (BioTek) at Ex 340 nm/Em 500 nm. The fluorescence intensities were then normalized, and the binding affinity was calculated by fitting the curve using one-site total model in GraphPad Prism 8.3.1 software.

MYCN G4 DNA [1] = assay: Surface plasmon resonance (SPR) with immobilized biotinylated MYCN G4 DNA; conditions: for positive binding in SPR (SNR>3): single concentration 100 μM compound
Experimental: Surface plasmon resonance (SPR) analysis. The SPR binding assays were performed with a BIAcore 3000 (GE Healthcare) instrument. A CM5 SPR biochip was loaded into the system and primed with running buffer (10 mM Tris, pH7.0, 100 mM KCl, 0.005% Tween 20, 5% DMSO) with a flow rate of 5 μL/min. Then both Flow Cell (Fc) 1 and 2 were activated by EDC/NHS (0.4 M/0.1 M) aqueous solution for 15 min, followed with an injection of streptavidin (SA) solution (0.2 mg/mL in 10 mM sodium acetate buffer, pH4.5) for 30 minutes. After the immobilization amount of SA reached 8,000-10,000 RU, the surface was deactivated by flowing 1 M Ethanolamine aqueous solution (pH 8.5) for 10 min and regenerated with 10 mM NaOH for 2 min to remove the unbound SA. In the meantime, biotinylated MYCN G4 DNA was prepared at 5 μM in the annealing buffer and heated up to 95° C. for 5 min and slowly cooled down. After annealing, a total of 150 μL solution was injected in the Fc 2 of SPR system for 30 min to immobilize DNA onto the chip surface. The small molecule solutions were tested once the baseline was stable.
To detect the binding signal as well as the binding affinity, a higher flowing rate (25 μL/min) was used in both Fc 1 (reference) and Fc 2 (DNA). Each of the compound solution was prepared at 20× designed the concentrations in DMSO, and then diluted into non-DMSO running buffer, resulting in a final concentration of 5% DMSO. Then, a total of 50 μL compound solution was injected in Fc 1-2 flow path for 120 s for association, followed with 200 s running of buffer for dissociation. An injection of 50 μL regeneration buffer (1 M KCl) could be performed between two samples if necessary. The final binding curve was obtained by reference subtraction. To determine the binding affinity (KD), a series of diluted compound solutions were injected and KD was calculated by BIAevaluation 4.0 software (GE Healthcare) using Langmuir 1:1 binding model.
In this example, SPR binding assays were performed to analyze binding activity of representative bivalent compounds of the present disclosure. The compounds of this example included a non-canonical binder component and a G4 stacker component. A BIAcore 3000 (GE Healthcare) instrument was used. A CM5 SPR biochip was used and primed with running buffer (10 mM Tris, pH7.0, 100 mM KCl, 0.005% Tween 20, 5% DMSO). To immobilize the compounds onto the chip surface, the flow rate was set as 5 μL/min. Then the carboxylated dextran on the chip surface was activated by EDC/NHS (0.4 M/0.1 M) aqueous solution for 15 min, followed with an injection of streptavidin (SA) solution (0.2 mg/mL in 10 mM sodium acetate buffer, pH 4.5) for 30 minutes. After the immobilization amount of SA, the surface was quenched by injecting 1 M ethanolamine (EA) aqueous solution (pH 8.5) for 10 min and regenerated with 10 mM NaOH for 2 min to remove the physical adsorption. Furthermore, biotinylated MYCN G4 DNA was prepared at 5 μM in the annealing buffer and heated up to 95° C. for 5 min followed with slowly cooling down to room temperature within 1 h. After annealing, a total of 150 μL solution was injected in the Fc 2 of SPR system for 30 min to immobilize DNA onto the chip surface. The compound solutions were then tested once the baseline was stable.
To detect the binding signal as well as the binding affinity, a higher flowing rate (25 μL/min) was used in both Fc 1 (blank) and Fc 2 (target). Each of the compound solutions was prepared at 20× designed the concentrations in DMSO, and then diluted into non-DMSO running buffer, resulting in a final concentration of 5% DMSO. Then, a total of 50 μL compound solution was injected in Fc 1-2 flow path for 120 s for association, followed with 200 s running of buffer for dissociation. An injection of 50 μL regeneration buffer (1 M KCl) could be performed between two samples if necessary. The final binding curve was obtained by referencing the blank channel (Fc 1). […]

MYCN G4 DNA [2] = assay: Fluorescence intensity assay (FIA) with 5′Cy5-labeled MYCN G4 DNA; conditions: single concentration 100 μM compound, 5′Cy5-MYCN G4
Experimental: Fluorescence intensity assay. In this disclosure, fluorescence intensity assay (FIA) was used for both validation of hit binding at a single dose and binding affinity determination. For validating hit compounds from SMM screening, 100 μM solution of each compound was prepared in triplicate in a 96 well-plate (Costar, black side clear bottom), resulting in 5% DMSO concentration. 5′Cy5-labeled MYCN G4 DNA was annealed as described above, then added into the well plate resulting in a final concentration of 100 nM. The plate was incubated shaking for 30 min, followed by centrifuging at 500 rpm for 2 minutes. The fluorescence intensity was then measured on a Synergy Mx microplate reader (BioTek) at Ex 649 nm/Em 670 nm. TMPyP4/DMSO were used as positive and negative controls, respectively. In certain examples, compounds were considered binders when a change of >10% change in fluorescence intensity was observed compared to that of negative control (DMSO solution). For binding affinity measurement, small molecule solutions were prepared as serial dilutions in DMSO. Then a final test plate was prepared by adding 5 μL small molecule solutions and 10 μL annealed DNA samples into 85 μL buffer solutions, resulting in the final small molecule concentrations from 0 to 250 μM (5% final DMSO concentration). The fluorescence intensities were normalized, and the binding affinity was calculated by fitting the curve using one-site total model in GraphPad Prism 8.3.1 software. The fluorescence titration using 3′-labeled oligonucleotides was also performed the same way.

[3] = target: MYCN G4 DNA (2-AP at A11); assay: 2-Aminopurine (2-AP) fluorescence titration, A11-labeled MYCN G4; conditions: 2-AP at A11 of MYCN G4
Experimental: 2-Aminopurine (2-AP) fluorescence titration. Fluorescence titrations based on 2-aminopurine labeling were performed using the protocol reported previously. Briefly, MYCN G4 oligonucleotide with a 2-AP substitution at either A11 or A18 position was annealed by heating the sample to 95° C. for 5 min and cooling down to RT slowly. The oligonucleotide with folded structure was diluted to 10 μM in Tris buffer (10 mM Tris, pH7.0, 100 mM KCl, 0.005% Tween 20) and prepared in a black 96-well plate (Costar) in triplicate as designed. Small molecules were diluted in DMSO to obtain a series of solutions with concentrations ranging from 0.1 to 5 mM, and then diluted by 20 times added into the plate (5% DMSO final concentration). The final concentration of 2-AP DNA was 1 μM in the well plate. To obtain the background fluorescence, small molecule solutions without DNA were also prepared in the same plate. After incubation for 30 min at RT, the plate was briefly centrifuged and scanned in Synergy Mx microplate reader (BioTek) with Ex 310 nm/Em 365 nm. Fluorescence signals were calculated by averaging the intensities in triplicate wells after subtracting the references. Finally, the binding signals were normalized and the KD value was determined by fitting the curve using a nonlinear sigmoidal dose-response model with a variable slope in GraphPad Prism 8.3.1 software.

[4] = MYCN hairpin G4, SPR titration, read-out: KD by SPR
[5] = MYCN G4, Langmuir 1:1 model, read-out: SPR KD

Row | Structure (SMILES) | positive binding in FIA (>10% quenching) (MYCN G4 DNA [2]) | Kd (MYCN G4 DNA [1]; [5]) [nM] | Kd [3] [nM] | also measured
1 | COc1ccc(-c2noc(-c3ccc(NCCOCCNc4c5ccc(Cl)cc5nc5ccc(OC)cc45)nn3)n2)cc1 [B35, 6-chloro-2-methoxy-N-(2-(2-((6-(3-(4-methoxyphenyl)-1,2,4-oxadiazol-5-yl)pyridazin-3-yl)amino)ethoxy)ethyl)acridin-9-amine] | – | – | – | Kd (MYCN hairpin-G4 DNA): 38 ± 5 nM; fold improvement of KD compared to B32 (MYCN hairpin-G4 DNA; FIA and SPR, MYCN HP-G4): > 10 fold; Kd (MYCN G4 DNA [1]; [4]): 14 ± 6 nM
2 | COc1ccc(-c2noc(-c3ccc(NCCOCCOCCNc4c5ccc(Cl)cc5nc5ccc(OC)cc45)nn3)n2)cc1 [B38, 6-chloro-2-methoxy-N-(2-(2-(2-((6-(3-(4-methoxyphenyl)-1,2,4-oxadiazol-5-yl)pyridazin-3-yl)amino)ethoxy)ethoxy)ethyl)acridin-9-amine] | – | – | – | Kd (MYCN hairpin-G4 DNA): 69 ± 21 nM; Kd (MYCN G4 DNA [1]; [4]): 87 ± 39 nM
3 | c1cc(CNCCCN2CCCCCC2)n(-c2nnc(C3CCCCCC3)s2)c1 [Compound 2] | hits | – | – | positive binding in SPR (SNR>3) (MYCN G4 DNA [1]): hits
4 | O=C1C(=O)C(c2ccc3c(c2)CCCC3)C1NC1CCN(Cc2ccccc2)CC1 (centres unmarked) [Compound 3] | – | – | – | positive binding in SPR (SNR>3) (MYCN G4 DNA [1]): hits
5 | COCC(=O)c1nc2ccccc2nc1NCc1cccnc1 [Compound 5] | hits | – | – | positive binding in SPR (SNR>3) (MYCN G4 DNA [1]): hits
6 | Cc1c(C(=O)O)sc2ncnc(NCCCN3CCN(c4ccccc4)CC3)c12 [Compound 9] | – | – | – | positive binding in SPR (SNR>3) (MYCN G4 DNA [1]): hits
7 | Cc1ccc(Nc2cc(C)nc(N3CCN(C(=O)CCc4ccccc4)CC3)n2)cc1 [Compound 10] | hits | – | – | –
8 | COc1ccc2c(c1)sc1nc(-c3ccc(OC)c(OC)c3)c(NC(C)(C)C)n12 [Compound 11] | hits | – | – | –
9 | CCOc1ccc(CNC(=O)c2cnc(N3CCSCC3)nc2N)cc1 [Compound 12] | hits | – | – | –
10 | CCCNc1cc(N2CCCC(CCC(=O)N3CCN(c4ncccn4)CC3)C2)ncn1 (centres unmarked) [Compound 13] | – | – | – | positive binding in SPR (SNR>3) (MYCN G4 DNA [1]): hits
11 | CC(C)COCC(O)CN1CCN(c2ccc(NC(=O)c3cccs3)cn2)CC1 (centres unmarked) [Compound 14] | hits | – | – | –
12 | COCCNc1ccc(-c2nc(-c3ccc(OC)cc3)no2)nn1 [MY-3] | – | 5900 ± 2700 | 1200 ± 600 | –
13 | COc1ccc(-c2noc(-c3ccc(NCCCN4CCN(C)CC4)nn3)n2)cc1 [MY-5, 6-(3-(4-methoxyphenyl)-1,2,4-oxadiazol-5-yl)-N-(3-(4-methylpiperazin-1-yl)propyl)pyridazin-3-amine] | – | 1400 ± 200 | 1000 ± 100 | –
14 | COc1ccc(-c2noc(-c3ccc(NCCN(C)C)nn3)n2)cc1 [MY-6] | – | 4900 ± 2600 | 1000 ± 200 | –
15 | COc1ccc(-c2noc(-c3ccc(NCCC(N)=O)nn3)n2)cc1 [MY-7] | – | 23500 ± 4700 | 13200 ± 4600 | –
16 | COc1ccc(-c2noc(-c3ccc(NCCCN4CCC(C)CC4)nn3)n2)cc1 [MY-10] | – | 2200 ± 600 | 700 ± 200 | A11 2AP KD [3]: sub-micromolar binders
17 | COc1ccc(-c2noc(-c3ccc(NCCCN(C)C)nn3)n2)cc1 [MY-11] | – | 9200 ± 1900 | 1200 ± 200 | –
18 | COc1ccc(-c2noc(-c3ccc(NCCN4CCCC4)nn3)n2)cc1 [MY-12] | – | > 100000 | – | –
19 | COc1ccc(-c2noc(-c3ccc(NCCN4CCOCC4)nn3)n2)cc1 [MY-13, 6-(3-(4-methoxyphenyl)-1,2,4-oxadiazol-5-yl)-N-(2-morpholinoethyl)pyridazin-3-amine] | – | 8200 ± 2400 | 3200 ± 700 | –
20 | COc1ccc(-c2noc(-c3ccc(NCCN4CCN(C)CC4)nn3)n2)cc1 [MY-14] | – | 3600 ± 1000 | 900 ± 200 | A11 2AP KD [3]: sub-micromolar binders
